Target: hTREM2 (Homo sapiens, UniProt Q9NZC2)
Assay: TREM2 activity by cellular Syk phosphorylation (AlphaScreen/AlphaLISA) in TREM2/DAP12-HEK cells, used for Examples 1-305
Assay type: cell-based
Set-up: expressed in transfected cells
Conditions: HEK293 Cells
How it was run: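 Single-cell-cloned HEK293 cells overexpressing TREM2 and DAP12, seeded 20 h, exposed to test articles (1% final DMSO) for 45 min at room temperature. Lysates read for phospho-Syk (Tyr525/526) vs total Syk by AlphaScreen. Signal normalised as percent of control between isotype IgG and 100 nM anti-TREM2 antibody; 4-parameter logistic fit.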

Chain of hTREM2 (Q9NZC2 19-230): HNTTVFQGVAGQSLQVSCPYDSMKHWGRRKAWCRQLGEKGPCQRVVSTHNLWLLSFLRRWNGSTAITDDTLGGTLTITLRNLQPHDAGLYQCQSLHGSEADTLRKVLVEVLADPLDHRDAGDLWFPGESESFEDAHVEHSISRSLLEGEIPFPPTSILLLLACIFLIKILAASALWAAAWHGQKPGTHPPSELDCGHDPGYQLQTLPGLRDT
Chain of hTREM2 (O43914 22-113 partner): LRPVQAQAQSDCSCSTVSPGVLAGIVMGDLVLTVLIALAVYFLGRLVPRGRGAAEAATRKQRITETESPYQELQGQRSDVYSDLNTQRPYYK

Row | SMILES | EC50 [nM] | hTREM2 Emax
1 | Cc1cc([C@H]2C[C@H](c3nc(-c4ccc(F)cc4F)c4ccc(C)nc4n3)CCO2)ccn1 [Example 278, 4-(2,4-difluorophenyl)-7-methyl-2-((2R,4R)-2-(2-methylpyridin-4-yl)tetrahydro-2H-pyran-4-yl)pyrido [2,3-d]pyrimidine] | 500 to 3000 | +++ (Emax>150 and ≤250)
2 | Cc1ccc(-c2nc(N3CCO[C@@H](c4cnn(C5CC5)c4)C3)nc3nc(C)cnc23)c(F)c1 [Example 9, 2-((2S)-2-(1-cyclopropyl-1H-pyrazol-4-yl)-4-morpholinyl)-4-(2-fluoro-4-methylphenyl)-7-methylpteridine] | ≤ 50 | +++ (Emax>150 and ≤250)
3 | Cc1nc2nc(N3CCO[C@@H](c4cnn(C)c4)C3)nc(CCC(F)(F)F)c2nc1C [Example 40, 6,7-dimethyl-2-((2S)-2-(1-methyl-1H-pyrazol-4-yl)-4-morpholinyl)-4-(3,3,3-trifluoropropyl)pteridine] | 50 to 500 | + (Emax>45 and ≤100)
4 | Cc1nc2nc([C@@H]3CCO[C@H](c4cnn(C)c4)C3)cc(-c3ccc(F)cc3F)c2nc1C [Example 255, 8-(2,4-difluorophenyl)-2,3-dimethyl-6-((2S,4R)-2-(1-methyl-1H-pyrazol-4-yl)tetrahydro-2H-pyran-4-yl)pyrido[2,3-b]pyrazine] | 500 to 3000 | ++ (Emax>100 and ≤150)
5 | Cc1nc2nc(N3CCO[C@@H](c4cnn(C)c4)C3)nc(C3=CCC(C(F)(F)F)CC3)c2nc1C (stereo partly drawn) [Example 254, (2S)-4-(6,7-dimethyl-4-(4-(trifluoromethyl)cyclohex-1-en-1-yl)pteridin-2-yl)-2-(1-methyl-1H-pyrazol-4-yl)morpholine] | 50 to 500 | +++ (Emax>150 and ≤250)
6 | Cc1nc2nc(N3CCO[C@@H](c4cnn(C)c4)C3)nc(C3CC(F)(F)C3)c2nc1C [Example 146, 4-(3,3-difluorocyclobutyl)-6,7-dimethyl-2-((2S)-2-(1-methyl-1H-pyrazol-4-yl)-4-morpholinyl) pteridine] | 500 to 3000 | ++ (Emax>100 and ≤150)
7 | Cc1nc2nc(N3CCO[C@H]([C@H]4CCOC4)C3)nc(-c3ccc(F)cc3F)c2nc1C (single isomer, unassigned) [Example 36] | 50 to 500 | +++ (Emax>150 and ≤250)
8 | Cc1ccc2c(-c3ccc(Cl)cc3F)nc(N3CCO[C@@H](c4cnn(C)c4)C3)cc2n1 [Example 148, 5-(4-chloro-2-fluorophenyl)-2-methyl-7-((2S)-2-(1-methyl-1H-pyrazol-4-yl)-4-morpholinyl)-1,6-naphthyridine] | 50 to 500 | +++ (Emax>150 and ≤250)
9 | Cc1cc([C@H]2CN(c3nc(-c4ccc(C(F)(F)F)nc4)c4nc(C)c(C)nc4n3)CCO2)ccn1 [Example 293, (S)-4-(6,7-dimethyl-4-(6-(trifluoromethyl)pyridin-3-yl)pteridin-2-yl)-2-(2-methylpyridin-4-yl)morpholine] |  | +++ (Emax>150 and ≤250)
10 | Cc1cnc2c(-c3ccc(Cl)cc3F)nc(N3CCO[C@@H](c4cnc(C)nc4)C3)nc2n1 [Example 4, 4-(4-chloro-2-fluorophenyl)-7-methyl-2-((2S)-2-(2-methyl-5-pyrimidinyl)-4-morpholinyl)pteridine] | 50 to 500 | +++ (Emax>150 and ≤250)
11 | Cc1cc2c(OCC3CC(F)(F)C3)nc(N3CCO[C@@H](c4cnn(C)c4)C3)nc2nc1C [Example 108, 4-((3,3-difluorocyclobutyl)methoxy)-6,7-dimethyl-2-((2S)-2-(1-methyl-1H-pyrazol-4-yl)-4-morpholinyl)pyrido[2,3-d]pyrimidine] | 50 to 500 | + (Emax>45 and ≤100)
12 | Cc1cc2c(-c3ccc(F)cc3F)nc(N3CCO[C@@H](c4cnn(C5CC5)c4)C3)nc2nc1C [Example 169, 2-((2S)-2-(1-cyclopropyl-1H-pyrazol-4-yl)-4-morpholinyl)-4-(2,4-difluorophenyl)-6,7-dimethylpyrido [2,3-d]pyrimidine] | ≤ 50 | +++ (Emax>150 and ≤250)
